Source: ChEMBL document CHEMBL1201862, “PubChem BioAssay data set” (2004)
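96-well plates; 48 h exposure; 5 concentrations. Endpoints by linear interpolation between flanking doses. Not reached: highest tested concentration assigned. GI50 is the concentration that inhibits growth by half.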 Activity calls are given as the source filed them. Cut-off read from the data, not from the text of the source: active = GI50 up to about 1.1 µM and inactive = higher.

Experiments:
Assay in all cases: DTP human tumour cell line panel, 48 h
[1] = system: SK-OV-3
[2] = system: U-251
[3] = system: ACHN
[4] = system: A549
[5] = system: RPMI-8226
[6] = system: OVCAR-8
[7] = system: MDA-MB-435
[8] = system: PC-3
[9] = system: CCRF-CEM
[10] = system: 786-0
[11] = system: SN12C
[12] = system: UO-31
[13] = system: RXF 393
[14] = system: SF-295
[15] = system: DU-145
[16] = system: TK-10
[17] = system: MDA-MB-231
[18] = system: HT-29
[19] = system: LOX IMVI
[20] = system: MOLT-4
[21] = system: HOP-92
[22] = system: MDA-N
[23] = system: NCI-H522
[24] = system: NCI-H460
[25] = system: CAKI-1
[26] = system: SK-MEL-5
[27] = system: HL-60
[28] = system: SK-MEL-2
[29] = system: Hs-578T
[30] = system: HOP-62
[31] = system: OVCAR-3
[32] = system: UACC-257
[33] = system: M14
[34] = system: OVCAR-5
[35] = system: Malme-3M
[36] = system: A498
[37] = system: NCI-H226
[38] = system: HCT-15
[39] = system: UACC-62
[40] = system: HCT-116
[41] = system: SNB-75
[42] = system: IGROV-1
[43] = system: KM12
[44] = system: SNB-19
[45] = system: NCI/ADR-RES
[46] = system: K562
[47] = system: T47D
[48] = system: COLO 205
[49] = system: SF-268
[50] = system: HCC 2998
[51] = system: MCF7
[52] = system: BT-549
[53] = system: SR
[54] = system: SF-539
[55] = system: OVCAR-4
[56] = system: SW-620
[57] = system: EKVX
[58] = system: NCI-H23
[59] = system: SK-MEL-28

Measured: GI50

CC(C)OC(=O)c1ccc(NCC2=CC(=O)C=CC2=O)cc1
inactive: [1] 42 µM | [2] 16 µM | [3] 12 µM | [4] 44.3 µM | [5] 2.54 µM | [6] 15.3 µM | [7] 13.6 µM | [8] 13.1 µM | [9] 2.21 µM | [10] 13 µM | [11] 12.9 µM | [12] 9.91 µM | [13] 12.8 µM | [14] 28.2 µM | [15] 16.6 µM | [16] 15.3 µM | [17] 10.2 µM | [18] 16.4 µM | [19] 12.8 µM | [20] 2.39 µM | [21] 2.48 µM | [22] 15.1 µM | [23] 1.69 µM | [24] 36.3 µM | [25] 3.43 µM | [26] 17.4 µM | [27] 2.2 µM | [28] 17 µM | [29] 18.3 µM | [30] > 95.5 µM | [31] 6.19 µM | [32] 14.1 µM | [33] 14.5 µM | [34] 19.4 µM | [35] 8.97 µM | [36] 27.2 µM | [37] 30 µM | [39] 15.3 µM | [40] 14.4 µM | [41] 18.5 µM | [42] 13.5 µM | [43] 16.6 µM | [44] 29.4 µM | [45] 13.5 µM | [46] 2.35 µM | [47] 2.25 µM | [48] 3.8 µM | [49] 12.3 µM | [50] 21.4 µM | [51] 12.4 µM | [52] 12.9 µM | [53] 2.39 µM | [54] 7.45 µM | [55] 12.8 µM | [56] 11.7 µM | [57] 17.3 µM | [58] 13.6 µM | [59] 18.3 µM
12.7 µM: [38]
